In patent publication US20250154165A1, “MULTIANTENNARY GLYCOLIPID MIMETICS” (CONSEJO SUPERIOR DE INVESTIGACIONES CIENTÍFICAS (CSIC), priority 2021, published 2025):

Legend:
[1] = tested on: LPS-induced inflammation in B6 mice; test: Suppression of LPS-induced inflammation in vivo; conditions: injected twice in a half hour time after LPS-treatment (FIG. 3)
Method: FIG. 3. […] The in vivo capability of compound 12 in suppressing LPS-induced inflammation in B6 mice was assessed as indicated in the scheme.
To determine the anti-inflammatory function in vivo, we assessed the capability of compound 12 in suppressing LPS-induced inflammation in B6 mice.

ERK = test: Signal transduction by multiplex bead array: ERK phosphorylation; format: cell-based; conditions: comparing to LPS treatment alone (FIG. 4)
From the text: (§1) FIG. 4. […] Compound 12, a representative compound of the invention, was examined in term of signal transduction to explore how the new compounds exert their suppressive effect, using the multiplex bead array.
(§2) Using the multiplex bead array, we examined how the new compounds might exert their suppressive effect in term of signal transduction.

STAT3 = test: Signal transduction by multiplex bead array: STAT3 phosphorylation; format: cell-based; conditions: comparing to LPS treatment alone (FIG. 4)
From the text: as §1, §2

[2] = tested on: Splenocytes treated with αGalCer; test: Suppression of αGalCer-induced inflammation (splenocytes in vitro); format: cell-based, mouse; conditions: splenocytes treated concurrently with compound and αGalCer (FIG. 5)
Method: FIG. 5. […] Splenocytes were treated concurrently with the compounds of the invention and αGalCer to assess the suppressive function of compounds on αGalCer-induced inflammation, with several compounds showing prominent suppressive function.
(§3) The whole spleen was surgically removed from a mouse and mechanically dissociated into a single cell suspension of splenocytes, which were then cultured in the complete RPMI 1640 medium (cRPMI). Human peripheral blood mononuclear cells (PBMCs) from healthy volunteers were collected from whole blood through gradient-centrifugation with Histopaque-1077 (Sigma-Aldrich).
Splenocytes were treated concurrently with the compounds of the invention and αGalCer to assess their ability to suppress αGalCer-induced inflammation.

Splenocytes = test: Immune-stimulating function of compounds alone (splenocytes in vitro); format: cell-based, mouse
Method: FIG. 6. […] Splenocytes were treated with the compounds of the invention alone to assess the immune-stimulating function of the compounds. Compounds 12, 18, 22, 27, and 29 induced significant IFNγ secretion, and compound 8 induced significant IL-4 secretion.
as §3
Splenocytes were treated with the compounds of the invention alone to assess the immune-stimulating function of the compounds by measuring their ability to promote the secretions of IFN-γ and IL-4.

[3] = tested on: OVA-induced AHR mouse model; test: Suppression of OVA-induced airway hyperreactivity (AHR) in vivo; conditions: OVA-induced AHR mouse model (FIG. 7)
Method: FIG. 7. […] The capability of selected compounds 8, 12, 18, and 27 in suppressing Th2 inflammation in vivo was assessed using the OAV-induced AHR mouse model.
(§4) For ovalbumin (OVA) challenge, mice were sensitized intraperitoneally (i.p.) with 50 μg of OVA with 2% alhydrogel adjuvant (InvivoGen). Mice were challenged three times with 50 μg of OVA on day 7 post-sensitization, either daily or every other day. Mice were sacrificed the day after the last OVA challenge. The scheme of the OT-1 adoptive transfer mouse model for examining the proliferation of CD8^+ T cells in adjuvanting OVA challenge is described in FIG. 13.
Mice were anesthetized with 100 mg per kg body weight pentobarbital (Sigma-Aldrich), tracheotomised and mechanically ventilated via the FinePointe RC system (Buxco Research Systems, Wilmington, NC). Lung function was assessed by measuring lung resistance and dynamic compliance in response to increasing doses of aerosolized methacholine (1.25-40 mg/mL, Sigma-Aldrich).
Using the Th2 OVA-induced AHR mouse model, we assessed the capability of selected compounds 8, 12, 18, and 27 in suppressing Th2 inflammation.

B6 mice = test: Adjuvancy function in vivo (serum IFNγ and IL-4 after injection)
Method: FIG. 11. […] The adjuvancy capability of the selected compounds 8, 12, 18, 27, and 29 in vivo was assessed by measuring the serum level of IFNγ and IL-4 induced after injecting them into B6 mice.
Besides assessing the ability of the new compounds to suppress inflammation, we also looked into their function to act as adjuvants, i.e. their ability to promote desirable immunological trends in the development of vaccines. We measured the in vivo adjuvancy capability of selected compounds 8, 12, 18, 27, and 29 in inducing IFNγ and IL-4 in B6 mice (FIG. 11).

[4] = tested on: DC-maturation marker CD86 in the spleen of mice; test: DC maturation in vivo (CD86 mRNA in spleen); conditions: mice injected with the compound (FIG. 12)
Method: FIG. 12. […] The capability of selected compounds 8, 12, 18, 27, and 29 in promoting DC maturation in vivo was assessed by the mRNA level of DC-maturation marker CD86 in the spleen of mice injected with the compounds of the invention.
The capability of selected compounds 8, 12, 18, 27, and 29 in promoting DC maturation in vivo was assessed by the mRNA level of DC-maturation marker CD86 in the spleen of mice injected with the compounds of the invention.

[5] = tested on: CD8+ T cells in the spleen, OT-1 adoptive transfer mouse model; test: Th1 immune response in vivo (CD8+ T cell proliferation, OT-1 adoptive transfer mouse model); conditions: OT-1 adoptive transfer mouse model (FIG. 13)
Method: FIG. 13. […] The adjuvancy capability of selected compounds 12 and 27 in vivo was assessed by their capability in promoting the proliferation of CD8^+ T cells in the spleen in the OT-1 adoptive transfer mouse model as described in the scheme.
as §4
Compounds 12 and 27 were injected into OT-1 mice (transgenic mice that express a TCR that is specific for an ovalbumin OVA peptide) to validate the Th1-biased immunomodulation property.

[6] = tested on: splenocytes isolated from MyD88 KO mice; test: MyD88 dependency of cytokine induction (splenocytes from MyD88 KO mice in vitro); format: cell-based
From the text: FIG. 14. […] The dependency of the compounds of the invention on functional MyD88 for biological function was examined using the representative compound 12, with immune cells isolated from MyD88 knocked-out mice. […] IL-4 was not detectable with compound 12 treatment, indicating a Th1-biased property.
(§5) To determine whether the adjuvancy function of the representative compound 12 is MyD88-dependent or not, we performed experiments with immune cells isolated from MyD88 knocked-out (KO) mice. […] Data are dose-dependent and differences become more pronounced at the higher concentrations. […] Taken together, the results support that compound 12 adjuvancy function is MyD88-dependent.

[7] = tested on: bone marrow-derived dendritic cells (BMDC) from MyD88 KO mice; test: MyD88 dependency of IL-12p40 production (BMDCs in vitro); format: cell-based; conditions: BMDC from MyD88 KO mice compared with BMDC from wild-type mice; dose-dependent (FIG. 15)
From the text: FIG. 15. […] The effect was dose-dependent, and the difference became more pronounced at a higher concentration.
as §5

[8] = tested on: BMDC from MyD88 deficient mice; test: MyD88 dependency of BMDC maturation; format: cell-based; conditions: BMDC from MyD88 deficient mice (FIG. 16)
From the text: as §5

[9] = splenocytes treated with compound alone (FIG. 6)
[10] = 2 hours after injection (FIG. 11)
[11] = 18 hours after injection (FIG. 11)

CCCCCCCCCCCCNC(=O)C(COC1C(O)C(O)C(O)C2COC(=O)N21)NC(=O)CCCCCCCCCCC (stereo not shown) [Compound 12]
level of IL-6 in sera [1]: significantly suppressed
level of TNFα in sera [1]: significantly suppressed
phosphorylation of ERK (ERK): significantly reduced
phosphorylation of STAT3 (STAT3): significant reduction of phosphorylation
suppressive function on αGalCer-induced inflammation [2]: prominent inflammation-suppressing function
Th1/Th2 bias (Splenocytes; concluded from IFNγ and IL-4 secretion of splenocytes (FIG. 6)): Th1-biased
IFNγ secretion (Splenocytes; [9]): effective in promoting the productions of IFNγ
IL-4 secretion (Splenocytes; [9]): not IL-4
suppression of airway hyperreactivity (AHR) [3]: can suppress AHR onset
serum level of IFNγ induced (B6 mice; [10]): significant capability in inducing
serum level of IL-4 induced (B6 mice; [10]): significant capability in inducing
serum level of IFNγ induced (B6 mice; [11]): significant detectable level
serum level of IL-4 induced (B6 mice; [11]): significant detectable level
CD86 mRNA expression in the spleens of mice [4]: significant increase
proliferation of CD8+ T cells in the spleen [5]: significant CD8^+ T cell proliferation
ability to induce IFNγ ([6]; splenocytes isolated from MyD88 KO mice (FIG. 14)): completely abrogated
IL-4 induction ([6]; splenocytes, MyD88 experiment (FIG. 14)): no IL-4 induction was observed
IL-12p40 production in response to compound [7]: severely curtailed
maturation of BMDC induced by compound treatment [8]: impeded
